Consider three compounds from patent US6352993B1, “Pyrimidine derivatives and processes for the preparation thereof” (Yuhan Corporation, priority 1997, dated 2002).

The target in assay [1] is proton pump (H+/K+-ATPase) (UniProt P19156). The assay is described as follows: Inhibition of proton pump (H+/K+-ATPase activity). It is filed as biochemical. Also noted: Effect ratio. The following applies: relative to omeprazole IC50. The procedure: (§1) Test 1: Inhibition of proton pump (H^+/K^+-ATPase activity)
(§2) A proton pump enzyme was prepared by the same method as in the Experiment 1-1 of WO 94/14795. Further, the inhibitory effect of proton pump activity was measured by the same method as in Experiment 1-2 of WO 94/14795.
(§3) Namely, the proton pump activity stimulated by Mg^++ was used as a negative comparative group, and the activity stimulated by Mg^++ and K^+ was used as a positive comparative group. The comparative compound was omeprazole.
(§4) Test tubes were divided into 4 groups: Group 1 as negative comparative group(n=3), Group 2 as positive comparative group(n=3), Group 3(n=5×2) to be administered with the compound of the present invention and Group 4(n=5×2) to be administered with the comparative compound.
(§5) The inhibitory effects of Groups 3 and 4 on proton pump activity were measured by employing the compound prepared in Examples and omeprazole, respectively, each of which was dissolved in dimethylsulfoxide at 5 different concentrations.
(§6) To each of Groups 1, 2, 3 and 4 were added 100 μl of magnesium chloride(40 mM) dissolved in 40 mM Tris-HCI buffer(ph 6.0) and 100 μg of the enzyme source. The 50 μl of potassium chloride(50 mM) and 50 μl of ammonium chloride(6 mM) dissolved in 40 mM Tris-HCl buffer(pH 6.0) were added to all groups except for group 1.
(§7) 10 μl of dimethylsulfoxide was added to each of Groups 1 and 2; and to Group 3 was added 10 μl of dimethylsulfoxide solution prepared by dissolving compound of EXAMPLE at 5 different concentration(n=5×2). To Group 4, 10 μl of the solution prepared by dissolving omeprazole in dimethylsulfoxide at 5 different concentration(37.6, 21.4, 12.2, 7.0 and 4.0 μM) was added(n=5×2). 40 mM Tris-HCI buffer(pH=6.0) was added thereto so as to make the total volume 400 μl.
(§8) Thereafter, the test tube of each Group were placed at 37° C. for 30 minutes for the preincubation. 100 μl ATP solution (6.6 mM) was added until the reaction volume became 500 μl. After the reaction was carried out at 37° C. for 30 minutes, 25% cold trichloroacetic acid was added to terminate the enzyme reaction. The released inorganic phosphate was measured by an automatic analyzer(Express 550, coming).
(§9) The difference between Group 1 and Group 2 represents the proton pump activity activated by K^+ only. The IC50s of Group 3 and 4 were calculated from Litchfield-wilcoxon equation[see, e.g., J. Pharrnacol. Exp. Ther., 96, 99(1949)]. The concentrations of the test compounds inhibiting 50% of the proton pump activity are represented as IC50 in Table 1.

The test system of assay [2] is gastric secretion in pylorus-ligated Sprague-Dawly rats. The assay is described as follows: Inhibition of gastric secretion (pylorus-ligated rats, Shay method). In kind it is in vivo. Particulars: 20 mg/kg intraduodenally, 5 hours; for Relative conc.: gastric juice acidity relative to omeprazole, equation (II); for Relative volume: gastric juice amount relative to omeprazole, equation (I); for Relative Acid Output: total acid output relative to omeprazole, equation (III). The procedure:
Test 2: Inhibition of gastric secretion
In accordance with the method disclosed in Shay, H., et al., Gastroenterology 5 43-61(1945), Test 2 was carried out.
Sprague-Dawly rats having a body weight of 170±10 g were divided into 3 groups(n=5) and deprived of food for 24 hours before the experiment with free access to water. Under ether anesthesia, the abdomen was incised, and the pylorus was ligated. As a comparative group, Group 1 was administered intraduodenally in a volume of 0.5 ml/200 g of 30% aqueous polyethylene glycol 400 solution. Groups 2 and 3 were administered intraduodenally with the compound of Example and omeprazole, respectively, each of which was suspended in 30% aqueous polyethylene glycol 400 solution at a concentration of 20 mg/kg. After closing the abdominal cavity, the rats were placed for 5 hours and then killed by cervical dislocation. The stomach was extracted to obtain gastric juice.
Tne gastric juice was centrifuged at 1,000 g to remove precipitates. The amount and acidity of the gastric juice were measured. Relative volumes, relative acid concentrations and relative acid outputs of the test compounds were calculated from equations(I), (II) and (III) and the results are shown in Table 2.
Relative volume=(the average amount of gastric juice of Group 1—the average amount of gastric juice of Group 2)/(the average amount of gastric juice of Group 1−the average amount of gastric juice of Group 3)—(I)
Relative acid concerntration=(the average acidity of Group 1—the average acidity of Group 2)/(the average acidity of Group 1—the average acidity of Group 3)—(II)
Relative acid output (the total amount of acid output of Group 1—the total amount of acid output of Group 2)/(the total amount of acid output of Group 1—the total amount of acid output of Group 3)—(m)

Assay [3] addresses proton pump (H+/K+-ATPase) (UniProt P19156). The assay is described as follows: Inhibition of proton pump (H+/K+-ATPase activity). In kind it is biochemical. The following applies: K+-stimulated proton pump activity, pH 6.0, 37° C., 30 minutes preincubation; read-out: IC50 (concentration inhibiting 50% of the proton pump activity). Also noted: other: K+-stimulated proton pump activity, pH 6.0, 37°. The procedure: as §1, §2, §3, §4, §5, §6, §7, §8, §9

For `Cc1c(CO)nc(Nc2ccccc2)nc1N1CCc2ccccc2C1C.Cl` (stereo not drawn) [Example 32, 6-hydroxymethyl-5-methyl-2-phenylamino-4-(1-methyl-1,2,3,4-tetrahydroisoquinolin-2-yl)pyrimidine hydrochloride], the Effect ratio in assay [1] was found to be 8.3. For the same compound, in assay [2], the Relative conc. is 0.47, the Relative volume is reported as 0.84 and the “Relative Acid Output” value was 0.77. Moreover, the IC50 in assay [3] worked out at 1340 nM.
As for `Cc1ccccc1Nc1nc(CO)c(C)c(N2CCc3ccccc3C2C)n1.Cl` (stereo not drawn) [Example 34, 6-hydroxymethyl-5-methyl-2-(2-methylphenylamino)-4-(1-methyl-1,2,3,4-tetrahydroisoquinolin-2-yl)pyrimidine hydrochloride], in assay [1], the Effect ratio worked out at 25.8. Further, in assay [2], the Relative conc. is 0.45, the Relative volume is reported as 0.81 and the “Relative Acid Output” value is 0.78. For the same compound, in assay [3], the IC50 was found to be 430 nM.
`Cc1nc(Nc2ccc(F)cc2)nc(N2CCc3cc(O)ccc3C2C)c1C.Cl` (stereo not drawn) [Example 36, 5,6-dimethyl-2-(4-fluorophenylamino)-4-(1-methyl-6-hydroxy-1,2,3,4-tetrahydroisoquinolin-2-yl)pyrimidine hydrochloride]: the Effect ratio in assay [1] is listed as 35.8. Besides, in assay [2], the Relative conc. stood at 1.08, the Relative volume is recorded as 1.05 and the “Relative Acid Output” value is given as 1.15. Moreover, the IC50 in assay [3] was determined as 310 nM.
